Patent US5189027A, “2-substituted adenosine derivatives and pharmaceutical compositions for circulatory diseases” (priority 1990, dated 1993)
Where two headings read alike, the source gives them in different places.

Assays:
A1 adenosine receptors [1] = biological target: T1, A1 adenosine receptors (Rattus norvegicus, UniProt P25099); test: Affinity for A1 adenosine receptors, [3H]-CHA binding to Wister rat brain membranes; conditions: 2.5 nM [3H]-CHA, Cheng and Prusoff, read-out: Affinity for Adenosine Receptors A1, affinity constant (Ki)
T1 construct: evaluated using Wister rat brain membranes; from tissue; host or cells: Wistar rat brain membranes
T1 sequence (P25099 1-326): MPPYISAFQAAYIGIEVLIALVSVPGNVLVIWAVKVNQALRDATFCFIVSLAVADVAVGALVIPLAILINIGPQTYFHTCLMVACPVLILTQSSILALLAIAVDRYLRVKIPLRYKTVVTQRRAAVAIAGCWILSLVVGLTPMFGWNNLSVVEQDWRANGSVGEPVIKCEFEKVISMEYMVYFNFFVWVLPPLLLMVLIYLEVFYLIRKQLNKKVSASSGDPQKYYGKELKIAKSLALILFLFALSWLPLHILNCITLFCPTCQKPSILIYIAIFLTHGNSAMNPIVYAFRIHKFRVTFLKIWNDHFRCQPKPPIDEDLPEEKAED
Procedure: The affinity of the compounds of the present invention for adenosine receptors was evaluated in substantially the same manner as is described in R. F. Bruns et al., Mol. Pharmacol., 29, 331-346 (1986); R. F. Bruns et al., Proc. Natl. Acad. Sci., U.S.A., 77, 5547 (1980); and Japanese Laid-Open Patent Publications Nos. 201196/1988 and 111996/1987. […] The above-obtained data were applied to the equation of Cheng and Prusoff, presented in Biochem. Pharmacol., 22, 3099 (1973), thereby finally obtaining the affinity constants (Ki). (See "Neurotransmitter and Receptor Binding". […] Kabushiki Kaisha (Sep. 15, 1987).)

[2] = test system: spontaneously hypertensive rats (SHRs); test: Effect on blood pressure and heart rate in SHR; assay type: in vivo, rat; conditions: for ED30: Rattus norvegicus, iv, 5 min, read-out: Blood Pressure ED30; for Heart Rate ED10: amount giving a 10 percent decrease in initial heart rate; for ED10/ED30: ratio of heart rate ED10 to blood pressure ED30 in SHR
Procedure: Male spontaneously hypertensive rats (SHRs) were anesthetized with urethane and α-chloralose. The blood pressure of the rats was measured with a pressure transducer through a polyethylene cannula inserted into the left carotid artery. The heart rate was monitored with a cardiotachometer triggered by the arterial pressure pulse. […] The blood pressure and the heart rate of the rats were measured 5 minutes after the respective administrations, and the maximum values thereof were determined.
Effects of the test compounds on the blood pressure and the heart rate were compared in terms of the ED30 and ED10 values.

A1 adenosine receptors [3] = conditions: background statement; cited from earlier work
A2 adenosine receptors [4] = conditions: background statement; cited from earlier work
A2 adenosine receptors [5] = biological target: T2, A2 adenosine receptors (Rattus norvegicus, UniProt P30543); test: Affinity for A2 adenosine receptors, [3H]-NECA binding to Wister rat striatal membranes; conditions: for Ki: Wister rat striatal membranes, 5 nM [3H]-NECA, Cheng and Prusoff, read-out: Affinity for Adenosine Receptors A2, affinity constant (Ki)
T2 construct: evaluated using Wister rat striatal membranes; from tissue; host or cells: Wistar rat striatal membranes
Procedure: The affinity of the test compound for A2 receptors was also evaluated using Wister rat striatal membranes.
The selectivity for A1 and A2 receptors was obtained by calculating the ratio of the Ki value in terms of A2 receptors to that in terms of A1 receptors (A1 /A2).

[6] = anesthetized male SHR, cumulative administration through femoral veins

T2 sequence (P30543 whole entry): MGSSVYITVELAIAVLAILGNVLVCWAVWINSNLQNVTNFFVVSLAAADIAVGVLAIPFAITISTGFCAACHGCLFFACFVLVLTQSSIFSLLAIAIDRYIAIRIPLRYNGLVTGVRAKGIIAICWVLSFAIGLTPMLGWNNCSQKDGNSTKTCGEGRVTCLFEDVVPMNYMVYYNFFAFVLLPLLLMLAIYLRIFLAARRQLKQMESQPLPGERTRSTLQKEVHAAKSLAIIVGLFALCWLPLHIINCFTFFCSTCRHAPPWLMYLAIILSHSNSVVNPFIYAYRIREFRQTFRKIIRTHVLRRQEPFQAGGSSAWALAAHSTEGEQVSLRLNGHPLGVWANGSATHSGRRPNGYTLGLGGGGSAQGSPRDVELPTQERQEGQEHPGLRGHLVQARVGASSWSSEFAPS

In the case of `Nc1nc(C#CC2(O)CCCCCCC2)nc2c1ncn2[C@@H]1O[C@H](CO)[C@@H](O)[C@H]1O` [Compound No. 45, 2-[(1-hydroxycyclooctane-1-yl)ethynyl]adenosine], the Ki (A1 adenosine receptors [1]) is reported as 56 nM, the ED30 [2] is reported as 0.012 µg/kg and the “Heart Rate ED10” value [2, 6] is reported as 14.78 µg/kg. It also gave an ED10/ED30 [2] of 1231.

In the case of `CCNC(=O)[C@H]1O[C@@H](n2cnc3c(N)ncnc32)[C@H](O)[C@@H]1O` [5'-N-ethylcarboxamideadenosine (NECA), 5'-N-ethylcarboxamideadenosine], the “affinity for A1 receptors” value (A1 adenosine receptors [3]) is listed as “high affinity for A1 receptors” and the “affinity for A2 receptors” value (A2 adenosine receptors [4]) is listed as “high affinity for A2 receptors”.

With `Nc1nc(C#CC2(O)CCCCC2)nc2c1ncn2[C@@H]1O[C@H](CO)[C@@H](O)[C@H]1O` [Compound No. 29, 2-[(1-hydroxycyclohexane-1-yl)ethynyl]adenosine] the Ki (A1 adenosine receptors [1]) was 21 nM, the ED30 [2] was 0.014 µg/kg and the “Heart Rate ED10” value [2, 6] was 3.29 µg/kg. The ED10/ED30 [2] was 235.

With `CCCCCCC#Cc1nc(N)c2ncn([C@@H]3O[C@H](CO)[C@@H](O)[C@H]3O)c2n1` [2-Octynyladenosine, reference compound] the ED30 ([2]; amount giving a 30 percent decrease in initial blood pressure, anesthetized male SHR, cumulative administration through femoral veins) was 0.25 µg/kg, the “Heart Rate ED10” value [2, 6] was 64.50 µg/kg and the ED10/ED30 [2] was 258. For the same molecule, the Ki (A2 adenosine receptors [5]) was 11 nM and the “A1/A2 (selectivity, ratio of Ki values)” value (A2 adenosine receptors [5]; ratio of Ki for A1 receptors to Ki for A2 receptors) was 12.1.

With `Nc1nc(C#CCC2CCCCC2)nc2c1ncn2[C@@H]1O[C@H](CO)[C@@H](O)[C@H]1O` [Compound No. 26, 2-(3-cyclohexyl-1-propynyl)adenosine] the Ki (A1 adenosine receptors [1]) was 208 nM, the ED30 [2] was 0.126 µg/kg and the “Heart Rate ED10” value [2, 6] was > 100 µg/kg. For the same molecule, the ED10/ED30 [2] was > 793.

With `Nc1nc(C#CCC2CCCC2)nc2c1ncn2[C@@H]1O[C@H](CO)[C@@H](O)[C@H]1O` [Compound No. 18, 2-(3-cyclopentyl-1-propynyl)adenosine] the Ki (A1 adenosine receptors [1]) was 162 nM, the ED30 [2] was 0.054 µg/kg and the “Heart Rate ED10” value [2, 6] was > 100 µg/kg. The ED10/ED30 [2] was > 1851 and the Ki (A2 adenosine receptors [5]) was 2.3 nM.
